The numbers were not newly measured in US20200163955A1, “STERILE COMPOSITIONS OF INDACATEROL SUITABLE FOR NEBULIZATION” (GLENMARK SPECIALTY S.A., priority 2018, published 2020), which cites them from elsewhere.

Structures are written as SMILES.

For this data set the following is noted: water.

Take `CCc1cc2c(cc1CC)CC(NC[C@H](O)c1ccc(O)c3[nH]c(=O)ccc13)C2` [Indacaterol, 5-[(1R)-2-[(5,6-diethyl-2,3-dihydro-1H-inden-2-yl)amino]-1-hydroxyethyl]-8-hydroxy-1H-quinolin-2-one]: the aqueous solubility entry is on record as “very slightly soluble in water”.
